{"source": "patent US20250382261A1", "about": "(The Broad Institute, Inc., priority 2021, published 2025)", "key": {"[1]": {"tested_on": "A. baumannii (ATCC 17978)", "assay": "Checkerboard potentiation assay with novobiocin", "type": "cell-based", "details": "with novobiocin", "experimental": "(§1) Bacterial strains and culture conditions. The following bacterial strains were used within this study; A. baumannii (ATCC 17978), K. pneumoniae (ATCC 43816), K. pneumoniae (ATCC 43816, expressing pGDP2:mcr-1), P. aeruginosa (PA01). Bacterial growth was in cation-adjusted Mueller-Hinton broth (MHB) at 37° C., and inoculum was prepared according to CLSI protocol (CLSI 2015).\n(§2) Potentiation assays. Checkerboard analyses were conducted with each drug serially diluted at eight concentrations to create an 8×8 matrix. At least two biological replicates were done for each combination, and the means were used for FIC calculation. The FIC for each drug was calculated by dividing the concentration of the drug in the presence of codrug in a combination for a well showing <10% growth by the MIC for that drug alone. The FIC index (FICI) is the sum of the two FICs, with an FIC index≤0.5 deemed synergistic."}, "[2]": {"assay": "HEK293 cytotoxicity assay (Cell Titer Glo)", "type": "cell-based", "details": "human", "experimental": "Cytotoxicity Assays. HEK293 (ATCC CRL 1573) cells were left to adhere for 18 h at 7.5×10^3 cells per well in DMEM containing 10% FBS and 2 mM L-glutamine. Compound was added directly into the well. After 48 h of treatment Promega Cell Titer Glo 2.0® was added, shaken for 10 min, and luminescence read (Biotek Neo). AC50 values were calculated using a four-parameter logistic curve in GraphPad Prism 9.\nFocusing on only the analogs that retained synergistic activity with novobiocin (FICI≤0.5), half-maximal activity (AC50) values were calculated against HEK293 cells using a CellTiter-Glo® based assay to approximate cell viability. […] Specifically, the FICI value for both P35 and P36 was 0.094 against A. baumannii, while their AC50 values were 235 μg/mL and 200 μg/mL, respectively."}, "[3]": {"tested_on": "A. baumannii ATCC 17978", "assay": "Systemic A. baumannii murine infection model", "type": "in vivo, mouse", "details": "for Animals rescued in combination with novobiocin: 10 mg/kg analog + 50 mg/kg novobiocin i.p. 2 h post-infection, endpoint 5 days", "experimental": "Mouse infection models. Animal experiments were conducted according to guidelines set by the Canadian Council on Animal Care using protocols approved by the Animal Review Ethics Board at McMaster University under Animal Use Protocol #20-12-43. Before infection, mice were relocated at random from a housing cage to treatment or control cages. No animals were excluded from analyses, and blinding was considered unnecessary. Seven- to nine-week-old female C57BL/6 mice (Charles River) were infected intraperitoneally with ˜2×10^6 CFU of A. baumannii ATCC 17978, with 5% porcine mucin (Sigma-Aldrich). Infections were allowed to establish for 2 h, and treatments were administered intraperitoneally. For the survival study, the clinical endpoint was determined using a five-point body condition score analyzing weight loss, decrease in body temperature, respiratory distress, hampered mobility and hunched posture. Experimental endpoint was defined as five days post-infection for mice not reaching clinical endpoint. For CFU/mL enumeration, animals were infected as described above and euthanized 6 h post-infection, and blood was collected into sterile 2 ml heparinized tubes (BD Scientific) serially diluted in PBS and plated onto solid LB. Plates were incubated overnight at 37° C., and colonies were quantified to determine bacterial load.\nThis was directly compared to the activity of P35 and P36 in this model (all administered at 10 mg/kg) in combination with novobiocin (50 mg/kg).\nFor this experiment the same A. baumannii infection model was used, however, endpoint was defined as 6 h post-infection, at which point blood was collected for CFU/mL enumeration (FIG. 2b)."}, "[4]": {"tested_on": "P. aeruginosa (PA01)", "assay": "Checkerboard potentiation assay with novobiocin", "type": "cell-based", "experimental": "as §1, §2\n(§3) To probe the spectrum of activity of the present analogs beyond A. baumannii, their interactions with novobiocin were assessed against the high-priority Gram-negative pathogens Klebsiella pneumoniae and P. aeruginosa (FIG. 5)."}, "[5]": {"tested_on": "LPS from E. coli EH100", "assay": "BODIPY-Cadaverine LPS displacement assay", "type": "binding", "details": "BODIPY-cadaverine displacement from E. coli EH100 LPS", "experimental": "BODIPY-Cadaverine LPS displacement assay. The BODIPY-cadaverine LPS displacement assay was performed as previously described (Wood et al. 2004. Combinatorial Chemistry & High Throughput Screening, 7: 239-49; Klobucar et al. 2021. ACS Chemical Biology, 16: 929-42). A solution of BODIPY-cadaverine (2.25 μM) and LPS from E. coli EH100 (5.25 μM) in Tris-HCl buffer (50 mM, pH 7.4) was prepared. 0.5 μL of compound and 49.5 μL of the Tris-HCl buffer with BODIPY-cadaverine and LPS solution were added to a Corning nonbinding surface black 384-well polystyrene plate. Fluorescence intensity was measured immediately with an excitation wavelength of 580 nm and an emission wavelength of 620 nm. EC50 values were calculated using a three-parameter logistic curve in GraphPad Prism 9."}, "[6]": {"assay": "in vitro", "details": "human"}, "[7]": {"tested_on": "human red blood cells", "assay": "Hemolysis in human blood", "details": "100 μM, 45 min, 37° C."}, "[8]": {"tested_on": "HepG2 cells", "details": "human, 72 h"}, "[9]": {"assay": "in vivo", "details": "female, C57BL/6, mouse, plasma, iv, 1 mg/kg", "quoted_text": "(§4) Plasma samples were taken from 3 mice per time point (5, 15, 30 min; 1, 2, 4, 6 and 8 h post-dose). An aliquot of 2 μL sample was protein precipitated with 60 μL methanol, the mixture was vortex-mixed well and centrifuged at 13000 rpm for 10 min at 4° C. 2 μL supernatant was injected for LC-MS/MS analysis. The mean plasma concentration and the standard deviation from all 3 animals within each time point were calculated. PK parameters were calculated with a non-compartmental analysis. The mean plasma concentrations from all 3 mice at each time point were used in the calculations."}, "[10]": {"tested_on": "K. pneumoniae (ATCC 43816)", "assay": "Checkerboard potentiation assay with novobiocin", "type": "cell-based", "experimental": "as §1, §2, §3"}, "[11]": {"assay": "Pharmacokinetic analysis after single intravenous dose", "quoted_text": "as §4"}, "[12]": {"tested_on": "A. baumannii ATCC 17978", "details": "murine systemic A. baumannii infection, Stokes et al. 2017; cited from earlier work"}, "[13]": {"details": "HEK293T Cytotoxicity (IC50, μg/mL)"}}, "note": "Read-outs that look alike come from different tables or passages of the source."}
{"smiles": "N=C(N)c1ccc(OCCN(CCOc2ccc(C(=N)N)cc2)Cc2ccccc2)cc1", "note": "[Analog P36]", "values": [{"measurement": "FICI AB", "setting": "[1]", "result": 0.094}, {"measurement": "IC50 at 48 h", "setting": "[2]; [13]", "result": 200, "unit": "µg/mL"}, {"measurement": "Animals rescued in combination with novobiocin", "setting": "[3]", "result": 80, "unit": "%"}, {"measurement": "FICI PA", "setting": "[4]", "result": 0.5}, {"measurement": "LPS Displacement (EC50, μg/mL)", "setting": "[5]", "result": 165.9, "unit": "µg/mL"}]}
{"smiles": "N=C(N)c1ccc(OCCCCCOc2ccc(C(=N)N)cc2)cc1", "note": "[Pentamidine, pentamidine, reference compound]", "values": [{"measurement": "FICI AB", "setting": "[1]", "result": 0.25}, {"measurement": "AC50 at 72 h", "setting": "[6]; HepG2 viability / cell cycle arrest AC50, HepG2, 72 h incubation", "result": "< 0.293", "unit": "µM"}, {"measurement": "AC50 at 72 h", "setting": "[6]; Nuclear Size AC50 (μM)", "result": 2.28, "unit": "µM"}, {"measurement": "AC50 at 72 h", "setting": "[6]; Phospholipidosis AC50 (μM)", "result": "> 150", "unit": "µM"}, {"measurement": "Hemolysis of human blood", "setting": "[7]", "result": "Neither compound was hemolytic"}, {"measurement": "IC50 at 48 h", "setting": "[2]; HEK293 cells (ATCC CRL 1573), 48 h treatment, Cell Titer Glo, called AC50 in the text, read-out: HEK293T Cytotoxicity (IC50, μg/mL)", "result": 73, "unit": "µg/mL"}, {"measurement": "AC50", "setting": "[8]", "result": "> 150", "unit": "µM"}, {"measurement": "Reduction in blood CFU/mL in combination with novobiocin", "setting": "[3]; 10 mg/kg + 50 mg/kg novobiocin, 6 h post-infection", "result": 2.08, "unit": "log10"}, {"measurement": "Animals rescued in combination with novobiocin", "setting": "[3]", "result": 100, "unit": "%"}, {"measurement": "AUC(0-inf)", "setting": "[9]", "result": 119, "unit": "ng·h/mL"}, {"measurement": "AUC(0-t)", "setting": "[9]", "result": 116, "unit": "ng·h/mL"}, {"measurement": "C0", "setting": "[9]", "result": 1260, "unit": "ng/mL"}, {"measurement": "MRT inf", "setting": "[9]", "result": 24.7, "unit": "min"}, {"measurement": "MRT last", "setting": "[9]", "result": 13.7, "unit": "min"}, {"measurement": "Vd", "setting": "[9]", "result": 3.45, "unit": "L/kg"}, {"measurement": "clearance", "setting": "[9]", "result": 140, "unit": "mL/min/kg"}, {"measurement": "half-life", "setting": "[9]", "result": 118, "unit": "min"}, {"measurement": "FICI PA", "setting": "[4]", "result": 0.75}, {"measurement": "FICI KP", "setting": "[10]", "result": 0.375}, {"measurement": "LPS Displacement (EC50, μg/mL)", "setting": "[5]", "result": 231, "unit": "µg/mL"}, {"measurement": "Adverse effects after single intravenous dose", "setting": "[11]; female C57BL/6 mice, 1 mg/kg i.v. in water", "result": "no adverse effects"}, {"measurement": "AUCExtra (%)", "setting": "[11]; mouse, 1 mg/kg IV", "result": 2.76, "unit": "%"}, {"measurement": "AUMCExtra (%)", "setting": "[11]; mouse, 1 mg/kg IV", "result": 45.8, "unit": "%"}, {"measurement": "Tlast", "setting": "[11]; mouse, 1 mg/kg IV", "result": 4.00, "unit": "h"}, {"measurement": "Animals rescued in combination with novobiocin (previous work)", "setting": "[12]", "result": 100, "unit": "%"}]}
{"smiles": "CO[C@@H]1[C@@H](OC(N)=O)[C@@H](O)[C@H](Oc2ccc3c(O)c(NC(=O)c4ccc(O)c(CC=C(C)C)c4)c(=O)oc3c2C)OC1(C)C", "note": "[novobiocin, reference compound]", "values": [{"measurement": "Impact on blood CFU/mL, treatment alone", "setting": "[3]; alone, 6 h post-infection, compared to control-treated animals", "result": "no significant impact"}]}
{"smiles": "CC(C)(CCOc1ccc(C(=N)N)cc1)CCOc1ccc(C(=N)N)cc1", "note": "[Analog P06]", "values": [{"measurement": "FICI AB", "setting": "[1]", "result": 0.187}, {"measurement": "IC50 at 48 h", "setting": "[2]; [13]", "result": 69.1, "unit": "µg/mL"}, {"measurement": "FICI PA", "setting": "[4]", "result": 0.375}, {"measurement": "FICI KP", "setting": "[10]", "result": 0.156}, {"measurement": "LPS Displacement (EC50, μg/mL)", "setting": "[5]", "result": 62.47, "unit": "µg/mL"}]}
{"smiles": "N=C(N)c1ccc(OCCC2(CCOc3ccc(C(=N)N)cc3)CCCCCC2)cc1", "note": "[Analog P04]", "values": [{"measurement": "FICI AB", "setting": "[1]", "result": 0.14}, {"measurement": "IC50 at 48 h", "setting": "[2]; [13]", "result": 37.1, "unit": "µg/mL"}, {"measurement": "FICI PA", "setting": "[4]", "result": 0.531}, {"measurement": "FICI KP", "setting": "[10]", "result": 0.25}, {"measurement": "LPS Displacement (EC50, μg/mL)", "setting": "[5]", "result": 15.97, "unit": "µg/mL"}]}
